From patent US20220073554A1, “LINCOSAMIDE ANTIBIOTICS AND USES THEREOF” (President and Fellows of Harvard College, priority 2017, published 2022)
≈ marks a conversion by molar mass, not a printed value. Read-outs that look alike come from different tables or passages of the source.

Experiments:
Type in all cases: cell-based
P. aeruginosa ATCC 27853 = assay: MIC against P. aeruginosa ATCC 27853; settings: Pseudomonas aeruginosa, ATCC27853
K. pneumoniae ATCC 10031 = assay: MIC against K. pneumoniae ATCC 10031; settings: Klebsiella pneumoniae, ATCC10031; K. pneumoniae ATCC 10031; read-out: MIC
C. difficile BAA 1805 = assay: MIC against C. difficile BAA 1805; settings: Clostridioides difficile, BAA1805
H. influenzae ATCC 49247 = assay: MIC against H. influenzae ATCC 49247; settings: Haemophilus influenzae, ATCC49247
[1] = tested on: E. coli MMX TolC parent strain; assay: MIC against E. coli MMX TolC parent strain; settings: Escherichia coli
S. pyogenes ATCC 19615 = assay: MIC against S. pyogenes ATCC 19615; settings: Streptococcus pyogenes, ATCC19615
S. aureus BAA 977 iErmA = assay: MIC against S. aureus BAA 977 iErmA; settings: Staphylococcus aureus, BAA977
E. coli MMX 0121 ΔTolC = assay: MIC against E. coli MMX 0121 ΔTolC; settings: Escherichia coli
S. aureus MMX 3035 cErmA = assay: MIC against S. aureus MMX 3035 cErmA; settings: Staphylococcus aureus, MMX3035CERMA
E. coli ATCC 25922 = assay: MIC against E. coli ATCC 25922; settings: Escherichia coli, ATCC25922
[2] = tested on: E. faecalis MMX 847 Macrolide-Resistant; assay: MIC against E. faecalis MMX 847 Macrolide-Resistant; settings: Enterococcus faecalis
[3] = tested on: P. aeruginosa MMX Mex parent strain; assay: MIC against P. aeruginosa MMX Mex parent strain; settings: Pseudomonas aeruginosa
[4] = tested on: S. pyogenes MMX 946 Macrolide-Resistant; assay: MIC against S. pyogenes MMX 946 Macrolide-Resistant; settings: Streptococcus pyogenes
[5] = tested on: S. pneumoniae MMX 3028 cErmB; assay: MIC against S. pneumoniae MMX 3028 cErmB; settings: Streptococcus pneumoniae, MMX3028CERMB
E. faecalis ATCC 29212 = assay: MIC against E. faecalis ATCC 29212; settings: Enterococcus faecalis
S. aureus ATCC 29213 = assay: MIC against S. aureus ATCC 29213; settings: Staphylococcus aureus
[6] = tested on: S. aureus Micromyx USA 300; assay: MIC against S. aureus Micromyx USA 300; settings: Staphylococcus aureus, USA300
[7] = tested on: P. aeruginosa MMX 3476 Δmex; assay: MIC against P. aeruginosa MMX 3476 Δmex; settings: Pseudomonas aeruginosa
B. fragilis ATCC 25285 = assay: MIC against B. fragilis ATCC 25285; settings: Bacteroides fragilis, ATCC25285
[8] = tested on: S. aureus MP-549 msr(a) USA 300; assay: MIC against S. aureus MP-549 msr(a) USA 300; settings: Staphylococcus aureus, USA300, S. aureus MP-549 msr(a) USA 300
[9] = tested on: S. pneumoniae MMX 3031 cMefA; assay: MIC against S. pneumoniae MMX 3031 cMefA; settings: Streptococcus pneumoniae, MMX3031CMEFA
S. pneumoniae ATCC 49619 = assay: MIC against S. pneumoniae ATCC 49619; settings: Streptococcus pneumoniae, ATCC49619; S. pneumoniae ATCC 49619; read-out: MIC
E. coli ATCC 15922 = assay: MIC against E. coli ATCC 15922; settings: Escherichia coli, ATCC15922
[10] = tested on: E. coli MP-74 LptD mutant; assay: MIC against E. coli MP-74 LptD mutant; settings: Escherichia coli
E. coli MP-9 ΔTolC = assay: MIC against E. coli MP-9 ΔTolC; settings: Escherichia coli
[11] = P. aeruginosa ATCC 27853, read-out: MIC
[12] = C. difficile BAA 1805, read-out: MIC
[13] = H. influenzae ATCC 49247, read-out: MIC
[14] = S. pyogenes ATCC 19615, read-out: MIC
[15] = S. aureus MMX 3035 cErmA, read-out: MIC
[16] = P. aeruginosa MMX Mex parent strain, read-out: MIC
[17] = S. pneumoniae MMX 3028 cErmB, read-out: MIC
[18] = B. fragilis ATCC 25285, read-out: MIC
[19] = ATCC29213, S. aureus ATCC 29213, read-out: MIC
[20] = S. aureus Micromyx USA 300, read-out: MIC
[21] = E. coli ATCC 15922, read-out: MIC

Compound	MIC (H. influenzae ATCC 49247; [13]) [µg/mL]	MIC (S. pyogenes ATCC 19615; [14]) [µg/mL]	MIC (S. aureus BAA 977 iErmA) [µg/mL]	MIC (E. coli MMX 0121 ΔTolC) [µg/mL]	MIC (P. aeruginosa ATCC 27853) [µg/mL]	MIC [4] [µg/mL]	MIC [5] [µg/mL]	MIC [1] [µg/mL]	MIC (S. aureus MMX 3035 cErmA) [µg/mL]	MIC (E. coli ATCC 25922) [µg/mL]	MIC [2] [µg/mL]	MIC [3] [µg/mL]	MIC [7] [µg/mL]	MIC (B. fragilis ATCC 25285) [µg/mL]	MIC [9] [µg/mL]	MIC (S. pneumoniae ATCC 49619) [µg/mL]	MIC (E. coli ATCC 15922) [µg/mL]	MIC (E. faecalis ATCC 29212; ATCC29212, read-out: MIC) [µg/mL]	MIC (S. aureus ATCC 29213; [19]) [µg/mL]	MIC [6, 20] [µg/mL]	also measured
CSC1O[C@H]([C@H](NC(=O)[C@H]2NC[C@@H]3C[C@H]4C[C@H]4CO[C@H]32)[C@H](C)Cl)C(O)[C@@H](O)[C@H]1O (stereo in doubt) [FSA-507007]	2 (≈ 4.43 µM)	≤ 0.06	0.5 (≈ 1.11 µM)	8 (≈ 17.7 µM)	–	–	–	–	–	–	–	–	–	–	–	–	–	–	–	–	MIC (P. aeruginosa ATCC 27853; [11]): > 64 µg/mL; MIC (K. pneumoniae ATCC 10031): > 64 µg/mL; MIC (C. difficile BAA 1805; [12]): 4 µg/mL (≈ 8.87 µM); MIC ([1]; E. coli MMX TolC parent strain, read-out: MIC): > 64 µg/mL; MIC (S. aureus MMX 3035 cErmA; [15]): > 64 µg/mL; MIC (E. coli ATCC 25922; E. coli ATCC 25922, read-out: MIC): > 64 µg/mL; MIC ([2]; E. faecalis MMX 847 Macrolide-Resistant (MacRes), read-out: MIC): > 64 µg/mL; MIC [3, 16]: > 64 µg/mL
C[C@@H](O)[C@@H](NC(=O)[C@H]1NC[C@@H]2CC=CCO[C@H]21)[C@H]1OC(CN=[N+]=[N-])[C@H](O)[C@H](O)C1O (stereo partly shown) [FSA-211064]	–	4 (≈ 9.36 µM)	> 64	> 64	> 64	> 64	> 64	> 64	> 64	> 64	> 64	> 64	> 64	> 64	–	–	–	–	–	–	MIC (H. influenzae ATCC 49247): > 64 µg/mL; MIC (E. faecalis ATCC 29212; ATCC29212): > 64 µg/mL; MIC (S. aureus ATCC 29213; ATCC29213): > 64 µg/mL; MIC [6]: > 64 µg/mL
CSC1O[C@H]([C@H](NC(=O)[C@@H]2[C@@H]3OCC=CC[C@H]3CN2C)[C@H](C)Sc2ccc(-c3cncnc3)cc2)C(O)[C@@H](O)[C@H]1O (stereo partly shown) [FSA-212034]	4 (≈ 6.64 µM)	≤ 0.06	–	1 (≈ 1.66 µM)	> 64	–	–	> 64	–	–	> 64	> 64	> 64	–	≤ 0.06	≤ 0.06	> 64	–	–	–	MIC ([4]; S. pyogenes MMX 946 Macrolide-Resistant (MacRes), read-out: MIC): 2 µg/mL (≈ 3.32 µM); MIC (C. difficile BAA 1805): 0.5 µg/mL (≈ 0.829 µM); MIC [5, 17]: 4 µg/mL (≈ 6.64 µM); MIC [8]: 0.5 µg/mL (≈ 0.829 µM); MIC (B. fragilis ATCC 25285; [18]): 1 µg/mL (≈ 1.66 µM)
CSC1O[C@H]([C@H](NC(=O)[C@H]2NC[C@@H]3C=C(c4ccccc4)CCO[C@@H]23)[C@H](C)Cl)C(O)[C@@H](O)[C@H]1O (stereo partly shown) [FSA-507031]	8 (≈ 15.6 µM)	–	> 32	> 32	> 32	> 32	> 32	> 32	> 32	> 32	> 32	> 32	> 32	> 32	–	–	–	–	–	–	MIC (C. difficile BAA 1805): > 32 µg/mL; MIC (E. faecalis ATCC 29212; ATCC29212): > 32 µg/mL; MIC (S. aureus ATCC 29213; ATCC29213): > 32 µg/mL; MIC [6]: > 32 µg/mL
C=CC1=CCO[C@@H]2[C@H](CN[C@@H]2C(=O)N[C@H]([C@H](C)Cl)[C@H]2OC(SC)[C@H](O)[C@H](O)C2O)C1 (stereo partly shown) [FSA-507041]	–	0.06 (≈ 0.13 µM)	0.5 (≈ 1.08 µM)	–	> 32	> 32	–	> 32	> 32	> 32	> 32	> 32	> 32	–	< 0.03	< 0.03	–	2 (≈ 4.32 µM)	0.5 (≈ 1.08 µM)	–	MIC (C. difficile BAA 1805; [12]): 0.5 µg/mL (≈ 1.08 µM); MIC (B. fragilis ATCC 25285; [18]): 2 µg/mL (≈ 4.32 µM)
CSC1O[C@H]([C@H](NC(=O)[C@H]2NC[C@H]3CC=CCO[C@H]32)[C@H](C)Cl)C(O)[C@@H](O)[C@H]1O (stereo partly shown) [FSA-507051]	6 (≈ 13.7 µM)	–	–	–	> 32	> 32	> 32	> 32	> 32	> 32	> 32	> 32	> 32	–	1 (≈ 2.29 µM)	1 (≈ 2.29 µM)	–	–	–	–	MIC (C. difficile BAA 1805): > 32 µg/mL; MIC (E. faecalis ATCC 29212; ATCC29212): > 32 µg/mL; MIC (S. pyogenes ATCC 19615): 0.5 µg/mL (≈ 1.14 µM)
CSC1O[C@H]([C@H](NC(=O)[C@H]2NC[C@@H]3C=C(c4ccc(F)cc4)CCO[C@@H]23)[C@H](C)Cl)C(O)[C@@H](O)[C@H]1O (stereo partly shown) [FSA-507052]	–	–	2 (≈ 3.77 µM)	> 32	> 32	> 32	> 32	> 32	> 32	–	> 32	> 32	> 32	> 32	–	–	> 32	1 (≈ 1.88 µM)	2 (≈ 3.77 µM)	0.5 (≈ 0.942 µM)	MIC (H. influenzae ATCC 49247): > 32 µg/mL
CSC1O[C@H]([C@H](NC(=O)[C@H]2NC[C@@H]3C=C(c4ccc(C(F)(F)F)cc4)CCO[C@@H]23)[C@H](C)Cl)C(O)[C@@H](O)[C@H]1O (stereo partly shown) [FSA-507053]	–	≤ 0.06	–	–	> 64	–	–	> 64	> 64	–	> 64	> 64	> 64	–	–	–	> 64	2 (≈ 3.44 µM)	–	0.5 (≈ 0.861 µM)	MIC (C. difficile BAA 1805; [12]): 8 µg/mL (≈ 13.8 µM)
CSC1O[C@H]([C@H](NC(=O)[C@H]2NC[C@@H]3CC(c4ccccc4)=CCO[C@H]32)[C@H](C)Cl)C(O)[C@@H](O)[C@H]1O (stereo partly shown) [FSA-507056]	–	–	1 (≈ 1.95 µM)	> 32	> 32	> 32	> 32	> 32	> 32	> 32	> 32	> 32	> 32	> 32	–	–	–	2 (≈ 3.9 µM)	1 (≈ 1.95 µM)	0.5 (≈ 0.975 µM)	MIC (H. influenzae ATCC 49247): > 32 µg/mL
CSC1O[C@H]([C@H](NC(=O)[C@H]2NC[C@@H]3CC(c4ccc(F)cc4)=CCO[C@H]32)[C@H](C)Cl)C(O)[C@@H](O)[C@H]1O (stereo partly shown) [FSA-507057]	–	–	1 (≈ 1.88 µM)	–	> 64	> 64	–	> 64	> 64	–	> 64	> 64	> 64	–	≤ 0.06	≤ 0.06	> 64	1 (≈ 1.88 µM)	2 (≈ 3.77 µM)	1 (≈ 1.88 µM)	–
CSC1O[C@H]([C@H](NC(=O)[C@H]2NC[C@@H]3CC(c4ccc(C(F)(F)F)cc4)=CCO[C@H]32)[C@H](C)Cl)C(O)[C@@H](O)[C@H]1O (stereo partly shown) [FSA-507060]	–	–	1 (≈ 1.72 µM)	–	> 64	–	–	–	–	–	–	> 64	> 64	–	–	0.5 (≈ 0.861 µM)	–	8 (≈ 13.8 µM)	2 (≈ 3.44 µM)	0.12 (≈ 0.207 µM)	–
CSC1O[C@H]([C@H](NC(=O)[C@H]2NC[C@@H]3C[C@@H](c4ccc(C(F)(F)F)cc4)CCO[C@H]32)[C@H](C)Cl)C(O)[C@@H](O)[C@H]1O (stereo partly shown) [FSA-509019]	4 (≈ 6.86 µM)	–	–	–	–	–	–	–	–	–	–	–	–	–	–	–	–	–	–	0.5 (≈ 0.858 µM)	MIC (P. aeruginosa ATCC 27853; [11]): > 64 µg/mL; MIC [3, 16]: > 64 µg/mL; MIC (E. coli ATCC 15922; [21]): > 64 µg/mL
CSC1O[C@H]([C@H](NC(=O)[C@H]2NC[C@@H]3C[C@@H](c4ccc(F)cc4F)CCO[C@H]32)[C@H](C)Cl)C(O)[C@@H](O)[C@H]1O (stereo partly shown) [FSA-511078]	–	≤ 0.06	–	–	–	–	–	–	–	–	–	–	–	–	≤ 0.06	≤ 0.06	–	–	–	–	MIC [10]: 8 µg/mL (≈ 14.5 µM); MIC (K. pneumoniae ATCC 10031): 8 µg/mL (≈ 14.5 µM); MIC [5, 17]: 4 µg/mL (≈ 7.26 µM); MIC (E. coli MP-9 ΔTolC): 2 µg/mL (≈ 3.63 µM); MIC (S. aureus MMX 3035 cErmA; [15]): > 64 µg/mL; MIC (E. coli ATCC 15922; [21]): > 64 µg/mL
